Laboratory results reported in publication PMC6474902, “Examination of novel 4-aminoquinoline derivatives designed and synthesized by a hybrid pharmacophore approach to enhance their anticancer activities” (Scientific Reports, 2019).
Read-outs that look alike come from different tables or passages of the source.

Tests used:
MCF7 = experiment: SRB antiproliferative/antigrowth assay; type: cell-based, human; details: for GI50: SRB, 48 h post-treatment, mean of triplicates of at least two experiments, read-out: GI50 MCF7
Protocol: (§1) The antigrowth effects of 4-piperazinylquinoline sulfonyl analogs on human breast tumor cells was initially evaluated using MDA-MB468 (a PTEN defective, EGFR positive breast adenocarcioma), MDA-MB231 (p53 and pRB mutated, triple-negative breast carcinoma), and MCF7 (p53+/−, invasive ductal breast carcinoma) cell lines. In addition, the cytotoxicity of all the compounds was also evaluated with the 184B5 and MCF10A non-cancer immortalized breast epithelial cell lines, to determine if these newly synthesized compounds have differential cytotoxic effects on cancer and non-cancer cells. The panel of three breast cancer cell lines with different genetic back ground and the well-studied two non-cancer immortalized breast cell lines would provide insights into the efficacy and toxicity of the test compounds in the different genetic background and at different stages of tumor development. The dose response of each cell line was established by determining the number of viable cells after 48 h of continuous drug treatment against seven different concentrations (100 µM to 0.0064 µM) of each compound. The reading of sulphorodamine B (SRB) staining is known to accurately reflect the level of total cellular macromolecules/cell growth/proliferation[6],[23]. […] The data for CQ and cisplatin were included as references. […] The differences in the GI50 values may be attributable to such factors as the nature of the sulfonyl group and the halogen substitution on the 7th position of the 4-piperazinylquinoline ring system, and the genetic and biochemical background of the cell lines.
(§2) Antiproliferative/antigrowth effects were determined by a SRB-based protocol[6],[23]. For a typical screening experiment, 5,000–10,000 cells were inoculated into 100 µL medium per well of a 96-well microtiter plate as described previously. Briefly, after the inoculation, the microtiter plate was incubated at 37 °C, 5% CO2, 95% air and 100% relative humidity for 24 h, prior to addition of experimental drugs. Some of the sample wells were fixed with 25 µL of 50% tricholoroacetic acid (TCA) as a control of the cell population for each cell line at the time of drug addition (Tz). An aliquot of the frozen stock was thawed and diluted to a desired final maximum test-concentration with complete medium. Two to ten-fold serial dilutions were made to provide a total of seven drug concentrations (and a control [C]). Following addition of drugs, the culture plate was incubated for additional 48 h. Cells were fixed in situ by slowly adding 25 µL of ice-cold 50% (w/v) TCA (final concentration, 10% TCA), and were then incubated for 60 min at 4 °C. The supernatant was discarded, and the plate was washed five times with tap water, followed by air-dry. 50 µL of SRB solution at 0.4% (w/v) in 1% acetic acid was added to each well, and the plate was incubated for >30 min at room temperature. Unbound SRB was removed by five washes with tap water, followed by air-drying. The cells “stained” with SRB were solubilized with 10 mM trizma base, and the absorbance was read on an automated plate reader at a wavelength of 515–564 nm. The relative growth rate (%) was calculated for each of the compound concentrations according to the following formula: (Ti−Tz)/(C−Tz)×100
(§3) In the formula, time zero (Tz), control growth (C), and OD for different concentration of tested compounds (Ti). The GI50 for each compound was obtained from a non-linear Sigmoidal dose-response (variable slope) curve which is fitted by GraphPad Prism v.4.03 software. Values were calculated for each of these parameters if the level of activity was reached. However, if the effect was not reached or was exceeded, the value for that parameter was expressed as greater or less than the maximum or minimum concentration tested.

MDA-MB231 = experiment: SRB antiproliferative/antigrowth assay; type: cell-based, human; details: for GI50: SRB, 48 h post-treatment, mean of triplicates of at least two experiments, read-out: GI50 MB231
Protocol: as §1, §2, §3

MDA-MB468 = experiment: SRB antiproliferative/antigrowth assay; type: cell-based, human; details: SRB, 48 h post-treatment, mean of triplicates of at least two experiments, read-out: GI50 MB468
Protocol: as §1, §2, §3

184B5 = experiment: SRB antiproliferative/antigrowth assay, non-cancer cells; type: cell-based, human; details: SRB, 48 h post-treatment, non-cancer breast epithelial cells, read-out: GI50 184B5
Protocol: as §1, §2, §3

MCF10A = experiment: as above; type: cell-based, human; details: SRB, 48 h post-treatment, non-cancer breast epithelial cells, read-out: GI50 MCF10A
Protocol: as §1, §2, §3

Molecule	GI50 (MCF7) [µM]	GI50 (MDA-MB231) [µM]	GI50 (MDA-MB468) [µM]	GI50 (MCF7; Homo sapiens, MCF7, 48 h) [µM]	GI50 (MDA-MB231; Homo sapiens, MDA-MB-231, 48 h) [µM]	GI50 (MDA-MB468; Homo sapiens, MDA-MB-468, 48 h) [µM]	melting point [°C]	GI50 (184B5) [µM]	GI50 (MCF10A) [µM]	GI50 (184B5; Homo sapiens, 184B5, 48 h) [µM]	GI50 (MCF10A; Homo sapiens, MCF-10A, 48 h) [µM]	increase in antigrowth activity on MCF7 in comparison to methyl substituted compound 7 (MCF7) [fold]	increase in antigrowth activity on MDA-MB231 in comparison to methyl substituted compound 16 (MDA-MB231) [fold]	increase in potency on MDA-MB231 in comparison to methyl substituted compounds (25 and 34) (MDA-MB231)	more effective than cisplatin (MCF7) (MCF7; ratio of GI50 values) [fold]	more effective than cisplatin (MDA-MB231) (MDA-MB231; ratio of GI50 values) [fold]
7-Chloro-4-(4-(biphenylsulfonyl)piperazin-1-yl)quinoline [Compound 9]	9.2 ± 0.2	26.2 ± 0.6	18.2 ± 0.5					16.4 ± 0.2	12.4 ± 0.2							
CS(=O)(=O)N1CCN(c2ccnc3cc(Cl)ccc23)CC1 [Compound 7, 7-Chloro-4-(4-(methylsulfonyl)piperazin-1-yl)quinoline]				22.9 ± 0.6	42.7 ± 0.8	35.1 ± 0.8				11.5 ± 0.2	15.3 ± 0.1					
O=S(=O)(c1ccc(Cl)cc1)N1CCN(c2ccnc3cc(Cl)ccc23)CC1 [Compound 10, 7-Chloro-4-(4-(4-chlorophenylsulfonyl)piperazin-1-yl)quinoline]				7.6 ± 0.1	25.5 ± 0.7	16 ± 0.6				12.1 ± 0.2	8.7 ± 0.1	3				
O=S(=O)(c1ccc(Cl)cc1Cl)N1CCN(c2ccnc3cc(Cl)ccc23)CC1 [Compound 11, 7-Chloro-4-(4-(2,4-dichlorophenylsulfonyl)piperazin-1-yl)quinoline]				13.5 ± 0.2	40.6 ± 0.8	21.6 ± 0.6	145 to 147			12.4 ± 0.1	8.9 ± 0.2					
O=[N+]([O-])c1cccc(S(=O)(=O)N2CCN(c3ccnc4cc(Cl)ccc34)CC2)c1 [Compound 12, 7-Chloro-4-(4-(3-nitrophenylsulfonyl)piperazin-1-yl)quinoline]				14.8 ± 0.2	34.7 ± 0.7	25.1 ± 0.7	138 to 140			13.3 ± 0.2	15.5 ± 0.2					
COC(=O)c1sccc1S(=O)(=O)N1CCN(c2ccnc3cc(Cl)ccc23)CC1 [Compound 15, Methyl 3-(4-(7-chloroquinolin-4-yl)piperazin-1-ylsulfonyl)thiophene-2-carboxylate]				22.4 ± 0.2	40.4 ± 0.8	30.2 ± 0.7	117 to 119			15.2 ± 0.2	14.6 ± 0.1					
Cc1ccc(S(=O)(=O)N2CCN(c3ccnc4cc(C(F)(F)F)ccc34)CC2)cc1 [Compound 17, 4-[4-(Toluene-4-sulfonyl)-piperazin-1-yl]-7-trifluoromethyl-quinoline]				20.8 ± 0.2	42.7 ± 0.8	36.5 ± 0.8	126 to 128			12.9 ± 0.1	10.5 ± 0.1					
O=S(=O)(c1ccc(-c2ccccc2)cc1)N1CCN(c2ccnc3cc(C(F)(F)F)ccc23)CC1 [Compound 18, 4-[4-(Biphenyl-4-sulfonyl)-piperazin-1-yl]-7-trifluoromethyl-quinoline]				14.8 ± 0.2	27.2 ± 0.6	20.5 ± 0.5	148 to 150			19.1 ± 0.2	15.5 ± 0.4					
O=S(=O)(c1ccc(Cl)cc1)N1CCN(c2ccnc3cc(C(F)(F)F)ccc23)CC1 [Compound 19, 4-[4-(4-Chloro-benzenesulfonyl)-piperazin-1-yl]-7-trifluoromethyl-quinoline]				27.4 ± 0.3	41.4 ± 0.8	34.9 ± 0.8	144 to 146			21.8 ± 0.3	13.6 ± 0.2					

Continued, in another order:

GI50 (MCF7) [µM]	GI50 (MDA-MB231) [µM]	GI50 (MDA-MB468) [µM]	GI50 (MCF7; Homo sapiens, MCF7, 48 h) [µM]	GI50 (MDA-MB231; Homo sapiens, MDA-MB-231, 48 h) [µM]	GI50 (MDA-MB468; Homo sapiens, MDA-MB-468, 48 h) [µM]	melting point [°C]	Molecule	GI50 (184B5) [µM]	GI50 (MCF10A) [µM]	GI50 (184B5; Homo sapiens, 184B5, 48 h) [µM]	GI50 (MCF10A; Homo sapiens, MCF-10A, 48 h) [µM]	increase in antigrowth activity on MCF7 in comparison to methyl substituted compound 7 (MCF7) [fold]	increase in antigrowth activity on MDA-MB231 in comparison to methyl substituted compound 16 (MDA-MB231) [fold]	increase in potency on MDA-MB231 in comparison to methyl substituted compounds (25 and 34) (MDA-MB231)	more effective than cisplatin (MCF7) (MCF7; ratio of GI50 values) [fold]	more effective than cisplatin (MDA-MB231) (MDA-MB231; ratio of GI50 values) [fold]
			16.7 ± 0.2	20.3 ± 0.5	18.6 ± 0.5	137 to 139	O=S(=O)(c1ccc(Cl)cc1Cl)N1CCN(c2ccnc3cc(C(F)(F)F)ccc23)CC1 [Compound 20, 4-[4-(2,4-Dichloro-benzenesulfonyl)-piperazin-1-yl]-7-trifluoromethyl-quinoline]			20.4 ± 0.2	15.6 ± 0.2		2			
			12.9 ± 0.2	22.1 ± 0.6	19.1 ± 0.6	98 to 100	CN(C)c1cccc2c(S(=O)(=O)N3CCN(c4ccnc5cc(C(F)(F)F)ccc45)CC3)cccc12 [Compound 23, Dimethyl-{5-[4-(7-trifluoromethyl-quinolin-4-yl)-piperazine-1-sulfonyl]-naphthalen-1-yl}-amine]			12 ± 0.2	15.4 ± 0.5					
			16 ± 0.2	34.7 ± 0.7	23.9 ± 0.6	117 to 119	COC(=O)c1sccc1S(=O)(=O)N1CCN(c2ccnc3cc(C(F)(F)F)ccc23)CC1 [Compound 24, 3-[4-(7-Trifluoromethyl-quinolin-4-yl)-piperazine-1-sulfonyl]-thiophene-2-carboxylic acid methyl ester]			15.9 ± 0.1	15.8 ± 0.1					
			23.1 ± 0.9	40.9 ± 1.5	28.6 ± 1		CS(=O)(=O)NCCCNc1ccnc2cc(Cl)ccc12 [Compound 25, N-[3-(7-Chloro-quinolin-4-ylamino)-propyl]-methanesulfonamide]			23.3 ± 0.9	39.1 ± 1.2					
			2.5 ± 0.2	4.6 ± 0.4	4.5 ± 0.4	116 to 118	O=S(=O)(NCCCNc1ccnc2cc(Cl)ccc12)c1ccc(-c2ccccc2)cc1 [Compound 27, Biphenyl-4-sulfonic acid [3-(7-chloro-quinolin-4-ylamino)-propyl]-amide]			2.4 ± 0.1	2.6 ± 0.1					
			4.3 ± 0.3	11.8 ± 0.9	8.3 ± 0.7		O=S(=O)(NCCCNc1ccnc2cc(Cl)ccc12)c1ccc(Cl)cc1 [Compound 28, 4-Chloro-N-(3-(7-chloroquinolin-4-ylamino)propyl)benzenesulfonamide]			6.4 ± 0.3	9.7 ± 0.1			3.5–4.4 fold		
			4 ± 0.2	6.8 ± 0.6	3.6 ± 0.1	145 to 147	O=S(=O)(NCCCNc1ccnc2cc(Cl)ccc12)c1ccc(Cl)cc1Cl [Compound 29, 2,4-Dichloro-N-[3-(7-chloro-quinolin-4-ylamino)-propyl]-benzenesulfonamide]			3.6 ± 0.2	6.8 ± 0.4					
			8.6 ± 0.4	20.4 ± 1.2	9.2 ± 0.7		O=[N+]([O-])c1cccc(S(=O)(=O)NCCCNc2ccnc3cc(Cl)ccc23)c1 [Compound 30, N-(3-(7-chloroquinolin-4-ylamino)propyl)-3-nitrobenzenesulfonamide]			15.8 ± 0.9	31.1 ± 1.1					
4.2 ± 0.2	6.1 ± 0.5	4.1 ± 0.3	4.22	5.97	4.18		COC(=O)c1sccc1S(=O)(=O)NCCCNc1ccnc2cc(Cl)ccc12 [Compound 33, 3-[3-(7-Chloro-quinolin-4-ylamino)-propylsulfamoyl]-thiophene-2-carboxylic acid methyl ester]	15.7 ± 0.4	16.5 ± 0.8	15.7	16.5				6.1	4.0
